What was measured:
[1] = system: Kv11.1-3.1; assay: Quantitative Western blot of Kv11.1-3.1 expression and trafficking (FG/CG bands) after overnight drug treatment; assay type: cell-based, human; conditions: for Kv11.1-3.1 expression and trafficking rescue (FG band) by selective inhibitors of ALLN targets / Trafficking Rescue?: Western blot; for Kv11.1-3.1 expression and trafficking rescue (FG band) by selective inhibitors of ALLN targets: Kv11.1-3.1 cells, single agents or cocktails; for Trafficking Rescue?: Literature compounds screened for Kv11.1-3.1 trafficking rescue
Method: HEK 293 cells were cultured at 37 °C (5% CO2) in Glutamax® Dulbecco’s modified Eagle’s Medium/Ham’s F-12 (Life Technologies, Grand Island, NY) supplemented with 1x Non-essential amino acids (Life Technologies, Grand Island, NY), 1x Penicillin/Streptomycin (Life Technologies, Grand Island, NY) and 10% fetal bovine serum (Sigma Aldrich, Saint Louis, MO). For pharmacological treatments, drugs were dissolved in DMSO and added to media at DMSO final concentrations < 0.2%. Cells were incubated in drug-containing media for 16–20 hours prior to assays.
Cells were washed with ice-cold PBS, harvested in ice-cold PBS, and pelleted by centrifugation at 500 g for 5 minutes. Cell pellets were resuspended with Radioimmunoprecipitation assay (RIPA) buffer (Sigma Aldrich, Saint Louis, MO) and rotated at 4 °C for 1 hour. Lysates were cleared by centrifugation at 16,000 g for 10 minutes and supernatants were analyzed for total protein concentration using a BCA kit (Pierce, Rockford, Illinois). […] Proteins were transferred onto 0.45 μm nitrocellulose membranes and incubated for 1hr in Odyssey® PBS blocking buffer (Li-Cor Biosciences, Lincoln, NE). Membranes were probed with anti-HA (1:5,000, GeneTex, Irvine, CA) and anti-NaK-ATPase (1:2,500, GeneTex, Irvine, CA) primary antibodies in Odyssey® PBS blocking buffer overnight at 4 °C. Anti-HA and anti-NaK-ATPase signals were detected using IRdye 800 donkey anti-rabbit (1:20,000, Li-Cor Biosciences, Lincoln, NE) and IRdye 680 donkey anti-mouse (1:20,000, Li-Cor Biosciences), respectively. The Li-Cor Odyssey® imaging system and software was used for antibody detection and quantification.

[2] = system: Kv11.1-3.1; assay: Quantitative immunofluorescence / high content imaging of Kv11.1-3.1 (sub-cellular and cell surface); assay type: cell-based, human
Method: (§1) Stable HEK 293 cell lines expressing either the full-length (1A) or deletion Kv11.1 (3.1) channel variant were plated onto 24 well ibiTreat® plates (ibidi, Martinsried, Germany) and grown until 80–90% confluent. For sub-cellular co-localization studies, cells were fixed with 4% paraformaldehyde in PBS for 15 minutes. Cells were simultaneously permeabilized, blocked, and quenched for background fluorescence by incubation in a PBS solution containing 0.1% Triton X-100, 10% normal goat serum, and 0.75% glycine for 15 minutes. Cells were probed with primary antibodies: anti-extracellular loop hERG (1:1000, Sigma Aldrich, Saint Louis, MO), anti-calnexin (1:1000, Abcam, Cambridge, MA), anti-58K Golgi protein (1:200, Abcam), anti-20s proteasome β1 (1:200, Santa Cruz Biotechnology, Dallas, TX). […]. Cell surface labeling with anti-hERG antibody was performed as described above. Cell images were captured with the Operetta® high content imaging system and quantified with Columbus® image analysis suite (both PerkinElmer, Waltham, MA).
Electrophysisology data analysis was performed using Axograph X® (Axograph, Berkley, CA) All data is presented as mean ± SEM unless specified. Unpaired T-tests, ANOVA, and subsequent Bonferroni corrections were completed using Prism (Graphpad, La Jolla, CA). Microscopy data was analyzed with linear mixed models with fixed effects for the treatment variables with a random intercept by replicate/well – hERG and RFP levels were log2-transformed prior to analysis. P values < 0.05 were accepted as significant.

[3] = system: Kv11.1-1A; assay: Quantitative immunofluorescence / high content imaging of Kv11.1-1A (sub-cellular and cell surface); assay type: cell-based, human
Method: as §1
Electrophysisology data analysis was performed using Axograph X® (Axograph, Berkley, CA) All data is presented as mean ± SEM unless specified. […] Microscopy data was analyzed with linear mixed models with fixed effects for the treatment variables with a random intercept by replicate/well – hERG and RFP levels were log2-transformed prior to analysis. […]

[4] = system: Kv11.1-3.1; assay: Co-immunoprecipitation of HA-tagged Kv11.1-3.1 probed for ubiquitin; assay type: cell-based, human; conditions: bortezomib 16 hours vs DMSO
Method: (§2) Dynabeads Protein G® (Life Technologies, Grand Island, NY) were prepared according to the manufacturer’s instructions and incubated with HA.11 anti-HA antibody (BioLegend, San Diego, CA) for 30 minutes and then fixed with BS[3] crosslinking reagent (ThermoFischer Scientific, Waltham, MA) to prevent antibody dissociation. Equal amounts of cell lysates from stably expressing Kv11.1 cell lines were prepared as before and then incubated with the prepared beads overnight at 4 °C. Beads were washed and proteins were eluted per the manufacturer’s instructions and visualized via SDS-PAGE. Membranes were probed with the antibodies described previously and anti-ubiquitin (1:1000, Abcam, Cambridge, MA). Antibody detection was performed as before.

[5] = system: Kv11.1-1A; assay: Co-immunoprecipitation of HA-tagged Kv11.1-1A probed for ubiquitin; assay type: cell-based, human; conditions: bortezomib 16 hours vs DMSO
Method: as §2

[6] = system: Kv11.1-1A; conditions: 1A expressing cells
[7] = biological target: T1, Kv11.1-3.1 (Homo sapiens, UniProt Q12809)
[8] = biological target: T1, Kv11.1-3.1; conditions: treated Kv11.1-3.1 cells, E4031 or DMSO controls, n = 16
[9] = system: hERG LQT2 mutants; conditions: some LQT2 mutants; cited from earlier work

T1 sequence (Q12809 1-1063 isoform Q12809-7): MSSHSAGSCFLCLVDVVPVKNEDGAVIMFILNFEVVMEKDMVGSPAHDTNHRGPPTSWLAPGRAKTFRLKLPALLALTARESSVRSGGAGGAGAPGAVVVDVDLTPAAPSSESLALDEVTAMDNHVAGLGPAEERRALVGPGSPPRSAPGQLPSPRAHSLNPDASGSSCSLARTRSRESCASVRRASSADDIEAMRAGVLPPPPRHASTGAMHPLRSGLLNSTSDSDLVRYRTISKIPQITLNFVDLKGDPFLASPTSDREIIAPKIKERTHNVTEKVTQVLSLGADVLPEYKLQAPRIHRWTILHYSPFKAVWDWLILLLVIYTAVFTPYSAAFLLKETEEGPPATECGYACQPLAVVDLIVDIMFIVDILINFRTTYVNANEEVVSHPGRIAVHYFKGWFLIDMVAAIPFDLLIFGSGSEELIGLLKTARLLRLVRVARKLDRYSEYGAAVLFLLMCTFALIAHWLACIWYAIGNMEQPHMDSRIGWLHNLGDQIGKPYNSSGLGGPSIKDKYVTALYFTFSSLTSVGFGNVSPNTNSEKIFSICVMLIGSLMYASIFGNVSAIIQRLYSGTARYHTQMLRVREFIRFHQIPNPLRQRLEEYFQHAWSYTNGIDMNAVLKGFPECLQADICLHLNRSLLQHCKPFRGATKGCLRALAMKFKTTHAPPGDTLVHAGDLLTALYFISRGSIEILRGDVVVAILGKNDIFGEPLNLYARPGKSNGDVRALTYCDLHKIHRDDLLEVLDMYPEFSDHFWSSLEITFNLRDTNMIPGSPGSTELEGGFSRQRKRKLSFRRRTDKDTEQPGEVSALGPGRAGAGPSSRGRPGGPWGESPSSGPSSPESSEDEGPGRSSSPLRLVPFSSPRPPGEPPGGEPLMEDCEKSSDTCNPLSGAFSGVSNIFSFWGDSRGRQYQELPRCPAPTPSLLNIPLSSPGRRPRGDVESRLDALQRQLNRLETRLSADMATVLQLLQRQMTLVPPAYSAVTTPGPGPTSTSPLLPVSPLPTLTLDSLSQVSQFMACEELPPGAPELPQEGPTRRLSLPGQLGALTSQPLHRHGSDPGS

SMILES: CCCNC(=O)[C@H]1O[C@@H]1C(=O)N[C@H](C(=O)N1CCC[C@H]1C(=O)O)[C@@H](C)CC [CA 078]
- Kv11.1-3.1 expression and trafficking rescue (FG band) by selective inhibitors of ALLN targets [1]: only bortezomib was effective

SMILES: C[N+](C)(C)CCOC(N)=O.[Cl-] [Carbamoylcholine Chloride]
- Trafficking Rescue? [1]: No

SMILES: COc1cc(N)c(Cl)cc1C(=O)NC1CCN(CCCOc2ccc(F)cc2)CC1OC (stereo not shown) [Cisapride]
- Trafficking Rescue? [1]: No

SMILES: COC(=O)Nc1nc2ccc(C(=O)c3cccs3)cc2[nH]1 [Nocodazole]
- Trafficking Rescue? [1]: No

SMILES: O=C(O)/C(S)=C/c1ccc(I)cc1 [PD 150606]
- Kv11.1-3.1 expression and trafficking rescue (FG band) by selective inhibitors of ALLN targets [1]: only bortezomib was effective

SMILES: O=C(O)c1ccccc1Nc1ccc(CCc2ccc(Cl)c(Cl)c2)cc1 [PD-118057]
- Trafficking Rescue? [1]: No

SMILES: CCc1ccccc1NC(=O)CSC(=O)NNC(=O)[C@H](Cc1c[nH]c2ccccc12)NC(=O)OC(C)(C)C [SID 26681509]
- Kv11.1-3.1 expression and trafficking rescue (FG band) by selective inhibitors of ALLN targets [1]: only bortezomib was effective

SMILES: N#Cc1ccc(COC[C@H]2O[C@@H](n3c(NCc4ccc(Cl)c(Cl)c4)nc4c(N)ncnc43)[C@H](O)[C@@H]2O)cc1 [VER-155008]
- Trafficking Rescue? [1]: No

SMILES: CC(C)C[C@H](NC(=O)[C@H](Cc1ccccc1)NC(=O)c1cnccn1)B(O)O [bortezomib]
- increase of overall channel expression (Total hERG/NaK ATPase) ([1]; Kv11.1-3.1 HEK 293 cells, bortezomib 10 nM): 6 fold
- trafficking efficiency (FG/Total hERG) ([1]; Kv11.1-3.1 HEK 293 cells, bortezomib 10 nM, n = 4): 25 ± 2%
- Kv11.1-3.1 expression and trafficking rescue (FG band) by selective inhibitors of ALLN targets [1]: effective
- elevation of steady-state Kv11.1-3.1 protein level (RFP-normalized fluorescence) ([2]; Kv11.1-3.1 cells cultured with drug, n = 3): ~3 fold
- Kv11.1-3.1 proteasome domain expression increase ([2]; colocalization domain): not found to be significant
- Kv11.1-3.1 expression in cytoplasm, nuclear regions, ER and Golgi ([2]; subcellular segmentation and colocalization domains): significantly increased
- factor of increase of surface Kv11.1-3.1/RFP ratio ([2]; vs untreated Kv11.1-3.1): 2
- elevation of Kv11.1 1A protein level (RFP-normalized fluorescence) ([3]; Kv11.1-1A cells cultured with drug): modest elevation
- ratio of surface Kv11.1-1A/RFP, slope m of linear regression ([3]; single cells, untreated m = 0.34): 0.40
- ubiquitin signal of immunoprecipitated Kv11.1-3.1 channels [4]: decrease in ubiquitin signal
- ubiquitin signal of immunoprecipitated 1A channels [5]: accumulation of ubiquitin signal
- Kv11.1-1A band changes on Western blot [6]: only increasing 1A CG expression
- cell membrane capacitance normalized peak tail current ([7]; bortezomib 10 nM treated Kv11.1-3.1 cells, n = 8): 75.93 ± 11.84 pA/pF
- effect on Kv11.1-3.1 deactivation rate kinetics (τ deactivation) ([7]; treated Kv11.1-3.1 cells vs controls, n = 3): no effect
- signal to background ratio in thallium flux assay [8]: roughly 4 fold

SMILES: CC(=O)N[C@@H](CSC(=O)[C@]1([C@@H](O)C(C)C)NC(=O)[C@H](C)[C@@H]1O)C(=O)O [lactacystin]
- hERG expression in LQT2 mutants [9]: increase hERG expression
- trafficking rescue in LQT2 mutants [9]: trafficking was unable to be rescued
